Data on nine compounds can be found in ChEMBL document CHEMBL4732150 (J Med Chem, 2021).

As a reminder, the IC50 is the midpoint of a concentration-inhibition curve. As a reminder, the half-life is the time needed for the level to fall by half in the phase considered. In general, Cmax refers to the peak of the concentration-time curve. What is called Tmax is the time at which the peak concentration occurs. Broadly, the CL/F is the apparent clearance, not corrected for the fraction that reaches the circulation.

The source made the active and inactive calls.

One data set relates to A-431. As to the kind of experiment: Antiproliferative activity against human A-431 cells assessed as reduction in cell viability incubated for 72 hrs by sulforhodamine B assay. The class given is functional, cell-based. Conditions: A-431, 72 h. For orientation: The SRB assay estimates cell density from bound dye.
Data set [1] deals with BaF3. As to the kind of experiment: Antitumor activity against mouse BAF3 cells harboring EGFR del19/T790M mutant xenografted in Balb/c nude mouse assessed as suppression of tumor growth at 3 to 5 mg/kg, po QD administered via gavage for 18 days relative to control. In kind it is functional, organism-based. Conditions: dose 3-5 mg/kg, time 18.0 day, tested as the 2H-labelled form.

A short description of data set [2]: Toxicity in Balb/c nude mouse xenografted with human NCI-H1975 cells harboring EGFR L858R/T790M mutant assessed as change in body weight at 1.5 to 2.5 mg/kg, po QD administered via gavage for 24 days and measured twice weekly. In kind it is organism-based. Conditions: in vivo, 576 h, dose 1.5-2.5 mg/kg, time 24 day. In general terms: In xenograft studies the graft and the host belong to different species.

Data set [3] can be described thus: Half life in CD1 mouse liver microsomes preincubated for 10 mins under shaking condition followed by NADPH generating system addition and measured up to 60 mins by LC-MS/MS analysis. In general terms: Microsomes from liver hold many membrane-bound enzymes, among them those of drug oxidation.
A short description of data set [4]: Half life in Sprague-Dawley rat liver microsomes preincubated for 10 mins under shaking condition followed by NADPH generating system addition and measured up to 20 mins by LC-MS/MS analysis.
The nature of data set [5]: Half life in Beagle dog liver microsomes preincubated for 10 mins under shaking condition followed by NADPH generating system addition and measured up to 60 mins by LC-MS/MS analysis.
Data set [6] is described as follows: Half life in cynomolgus monkey liver microsomes preincubated for 10 mins under shaking condition followed by NADPH generating system addition and measured up to 60 mins by LC-MS/MS analysis.
Data set [7] in a line: Intrinsic clearance in CD1 mouse liver microsomes preincubated for 10 mins under shaking condition followed by NADPH generating system addition and measured up to 60 mins by LC-MS/MS analysis. Conditions: 1 h, time <=70 min. In kind it is ADME, Microsome.
Data set [8] in a line: Intrinsic clearance in Sprague-Dawley rat liver microsomes preincubated for 10 mins under shaking condition followed by NADPH generating system addition and measured up to 60 mins by LC-MS/MS analysis. Conditions: 1 h, time <=70 min. In kind it is ADME, Microsome.
Data set [9] in a line: Intrinsic clearance in Beagle dog liver microsomes preincubated for 10 mins under shaking condition followed by NADPH generating system addition and measured up to 60 mins by LC-MS/MS analysis. In kind it is ADME, Canis lupus familiaris, Microsome. Conditions: 1 h, time <=70 min.
The nature of data set [10]: Intrinsic clearance in cynomolgus monkey liver microsomes preincubated for 10 mins under shaking condition followed by NADPH generating system addition and measured up to 60 mins by LC-MS/MS analysis. In kind it is ADME, Macaca fascicularis, Microsome. Conditions: 1 h, time <=70 min.
The nature of data set [11]: Intrinsic clearance in human liver microsomes preincubated for 10 mins under shaking condition followed by NADPH generating system addition and measured up to 60 mins by LC-MS/MS analysis. In kind it is ADME, Microsome. Conditions: 1 h, time <=70 min.
Data set [12] is described as follows: Cmax in Sprague-Dawley rat assessed as AZ5104 at 6 mg/kg/day, IG administered as single dose and measured up to 24 hrs by LC-MS/MS analysis. To be noted: in vivo, po. The class given is ADME, organism-based. More on the design: route […], dose 6 mg/kg/day, time <=24.
Data set [13] can be described thus: Tmax in Sprague-Dawley rat assessed as AZ5104 at 6 mg/kg/day, IG administered as single dose and measured up to 24 hrs by LC-MS/MS analysis. The class given is ADME, organism-based. Conditions: in vivo, po.
Data set [14] is described as follows: Cmax in Sprague-Dawley rat at 6 mg/kg/day, IG administered as single dose and measured up to 24 hrs by LC-MS/MS analysis. In kind it is ADME, organism-based. More on the design: route […], dose 6 mg/kg/day, time <=24. To be noted: in vivo, po.
Data set [15] can be described thus: Apparent oral clearance in Sprague-Dawley rat at 6 mg/kg/day, IG administered as single dose and measured up to 24 hrs by LC-MS/MS analysis. Conditions: in vivo. In kind it is ADME, organism-based.
Data set [16] relates to BaF3. As to the kind of experiment: cells. Conditions: Mus musculus, BaF3, 72 h.
Data set [17] concerns BaF3. As to the kind of experiment: cells. To be noted: Mus musculus, BaF3, 72 h. The source holds these as a separate data set.
A short description of a further data set: in vivo. Conditions: Sprague-Dawley, rat, po, 6 mg/kg.
A short description of the next data set: in vitro. Conditions: human, liver microsomes.
The next data set relates to NCI-H1975. The data set can be described thus: Antiproliferative activity against human NCI-H1975 cells assessed as reduction in cell viability incubated for 72 hrs by sulforhodamine B assay. In kind it is functional, cell-based. Conditions: NCI-H1975, 72 h.
The nature of data set [18]: Selectivity ratio of IC50 for antiproliferative activity against human A-431 cells to IC50 for antiproliferative activity against human NCI-H1975 cells. In kind it is functional.

With `C=CC(=O)Nc1cc(Nc2nccc(-c3cn(C)c4ccccc34)n2)c(OC)cc1N(C)CCN(C)C` [OSIMERTINIB], the results for the 50% inhibitory concentration (IC50) in the data set with A-431, with BaF3 [16] and in the data set with BaF3 [17] were […], 0.0215 µM and 0.004 µM, respectively. In addition, in the data set on BaF3 [1], the result was Active. The Activity entry in [2] was “Toxic”. Moreover, the half-life at 1 h in data set [3] was determined as 22.3 min; in data set [5] it was 26.1 min; in data set [6], […]; in “in vitro”, […]. This compound showed a half-life at 20 min in data set [4] of 36.8 min. The CLint stood at 62.1 µL/min/mg in [7]; 37.6 µL/min/mg in data set [8]; 53.2 µL/min/mg in [9]; 41.7 µL/min/mg in data set [10]; 8.1 µL/min/mg in [11]. The highest concentration (Cmax) in data set [12] is 6.4 nM; in [14], 145 nM. For the same compound, the time of peak concentration (Tmax) in data set [13] was found to be 380 min. In addition, the CL/F in [15] came to 313 mL/min/kg. The half-life at 24 h in the data set “in vivo” is 227 min.

`C/C=C/C(=O)Nc1cc(Nc2nccc(-c3cn(C)c4ccccc34)n2)c(OC)cc1N(C)CCN(C)C`: the values for the 50% inhibitory concentration (IC50) in the data set with A-431 and in the data set with NCI-H1975 were 5.79 µM and 0.496 µM, respectively. For the same compound, in [18], the “Ratio IC50” value is reported as 12.

Regarding `[2H]C([2H])=CC(=O)Nc1cc(Nc2nccc(-c3cn(C([2H])([2H])[2H])c4ccccc34)n2)c(OC)cc1N(C)CCN(C)C`, the IC50 in the data set with A-431 came to […]; in the data set on NCI-H1975 it was […]; in the data set with BaF3 [16] it was 0.018 µM; with BaF3 [17], 0.0035 µM.

`[2H]C([2H])=CC(=O)Nc1cc(Nc2nccc(-c3cn(C)c4ccccc34)n2)c(OC)cc1N(C)CCN(C)C`: the concentration for half-maximal inhibition (IC50) in the data set on A-431 was […]; with NCI-H1975, […].

Consider `C=C(Br)C(=O)Nc1cc(Nc2nccc(-c3cn(C)c4ccccc34)n2)c(OC)cc1N(C)CCN(C)C`, for which the IC50 was 1.06 µM in the data set with A-431 and 0.147 µM in the data set with NCI-H1975. Also, the “Ratio IC50” value in data set [18] is given as 7.

Consider `C=C(C(=O)Nc1cc(Nc2nccc(-c3cn(C)c4ccccc34)n2)c(OC)cc1N(C)CCN(C)C)C(F)(F)F`, for which the IC50 in the data set with A-431 is 11.2 µM; with NCI-H1975, 0.546 µM. Further, the “Ratio IC50” value in data set [18] turned out to be 21.

As to `C=C(F)C(=O)Nc1cc(Nc2nccc(-c3cn(C)c4ccccc34)n2)c(OC)cc1N(C)CCN(C)C`, the figures for the half-maximal inhibitory concentration (IC50) with A-431 and in the data set with NCI-H1975 were 2.5 µM and 0.208 µM, respectively. Moreover, the “Ratio IC50” value in data set [18] was determined as 12.

In the case of `C=C(Cl)C(=O)Nc1cc(Nc2nccc(-c3cn(C)c4ccccc34)n2)c(OC)cc1N(C)CCN(C)C`, the IC50 worked out at 1.55 µM in the data set on A-431 and 0.241 µM with NCI-H1975. In data set [18], the “Ratio IC50” value worked out at 6.

`C=C(C)C(=O)Nc1cc(Nc2nccc(-c3cn(C)c4ccccc34)n2)c(OC)cc1N(C)CCN(C)C`: the values for the concentration for half-maximal inhibition (IC50) in the data set with A-431 and in the data set with NCI-H1975 were 5.34 µM and 0.486 µM, respectively. In addition, the “Ratio IC50” value in [18] is 11.
